Target: T1, F508delCFTR (Homo sapiens, UniProt P13569, DEL508-508)
T1 construct: expressed in transfected cells; host or cells: CFBE41o- (human lung derived epithelial cell line), doxycycline-inducible
Experiment: Cell Surface Expression-Horse Radish Peroxidase (CSE-HRP) assay
Format: cell-based
Conditions: CFBE41o-F508delCFTR-HRP cells; for EC50: F508delCFTR cell surface expression, luminescence, 18-24 hours at 33° C., highest concentration 20 μM; for Maximum % activity: maximum at any tested concentration, normalized to on-plate positive control (3 μM)
From the text: Cell Surface Expression-Horse Radish Peroxidase (CSE-HRP) Assay:
A cellular assay for measuring the F508delCFTR cell surface expression after correction with test compounds was developed in human lung derived epithelial cell line (CFBE41o-) (Veit G et al, (2012) Mol Biol Cell. 23(21): 4188-4202). This was achieved by expressing the F508delCFTR mutation along with a horseradish peroxidase (HRP) in the fourth exofacial loop and then measuring the HRP activity using luminescence readout from these cells, CFBE41o-F508delCFTR-HRP, that were incubated overnight with the test corrector compounds. Briefly, for this primary assay, the CFBE41o-F508delCFTR-HRP cells were plated in 384-well plates (Greiner Bio-one; Cat 781080) at 4,000 cells/well along with 0.5 μg/mL doxycycline to induce the F508delCFTR-HRP expression and further incubated at 37° C., 5% CO2 for 72 hours. The test compounds were then added at the required concentrations and further incubated for 18-24 hours at 33° C. The highest concentration tested was 20 μM with an 8-point concentration response curve using a 3-fold dilution. Three replicate plates were run to determine one EC50. All plates contained negative controls (dimethyl sulfoxide, DMSO) and positive controls (3 μM of 3-[(2R,4R)-4-({[1-(2,2-difluoro-1,3-benzodioxol-5-yl)cyclopropyl]carbonyl}amino)-7-methoxy-3,4-dihydro-2H-chromen-2-yl]benzoic acid) as well as on-plate concentration response of the positive control. Post incubation, the plates were washed 5× times with Dulbecco's phosphate buffered saline (DPBS), followed by the addition of the HRP substrate, luminol (50 μL), and measuring the HRP activity using luminescence readout on EnVision® Multilabel Plate Reader (Perkin Elmer; product number 2104-0010). The raw counts from the experiment are analyzed using Accelrys® Assay Explorer v3.3.
Z′ greater than 0.5 was used as passing quality control criteria for the plates.
The Z′ is defined as: 1−[3*SDPositive Control+3*SDNegative Control/Absolute(MeanPositive Control−MeanNegative Control)] wherein “SD” is standard deviation.
The % activity measured at each of the 8 test concentrations of the test compound was normalized to the on-plate positive control using the following formula: % activity=[(test compound response−DMSO response)/(positive control response−DMSO response)]*100
The maximum % activity achieved for the test compound at any tested concentration is presented in Table 1 along with the EC50 calculated using the following general sigmoidal curve with variable Hill slope equation (described as Model 42 in the Accelrys® Assay Explorer v3.3 software): y=(a−d)/(1+(x/c)^b)+d
General sigmoidal curve with concentration, response, top, bottom, EC50 and Hill slope.
This model describes a sigmoidal curve with an adjustable baseline, a. The equation can be used to fit curves where response is either increasing or decreasing with respect to the independent variable, “x”. • “x” is a concentration of drug under test. • “y” is the response. • “a” is the maximum response, and “d” is the minimum response • “c” is the inflection point (EC50) for the curve. That is, “y” is halfway between the lower and upper asymptotes when x=c. • “b” is the slope-factor or Hill coefficient. The sign of b is positive when the response increases with increasing dose and is negative when the response decreases with increasing dose (inhibition).

T1 sequence (P13569 with tags, fused parts or gaps DEL508-508): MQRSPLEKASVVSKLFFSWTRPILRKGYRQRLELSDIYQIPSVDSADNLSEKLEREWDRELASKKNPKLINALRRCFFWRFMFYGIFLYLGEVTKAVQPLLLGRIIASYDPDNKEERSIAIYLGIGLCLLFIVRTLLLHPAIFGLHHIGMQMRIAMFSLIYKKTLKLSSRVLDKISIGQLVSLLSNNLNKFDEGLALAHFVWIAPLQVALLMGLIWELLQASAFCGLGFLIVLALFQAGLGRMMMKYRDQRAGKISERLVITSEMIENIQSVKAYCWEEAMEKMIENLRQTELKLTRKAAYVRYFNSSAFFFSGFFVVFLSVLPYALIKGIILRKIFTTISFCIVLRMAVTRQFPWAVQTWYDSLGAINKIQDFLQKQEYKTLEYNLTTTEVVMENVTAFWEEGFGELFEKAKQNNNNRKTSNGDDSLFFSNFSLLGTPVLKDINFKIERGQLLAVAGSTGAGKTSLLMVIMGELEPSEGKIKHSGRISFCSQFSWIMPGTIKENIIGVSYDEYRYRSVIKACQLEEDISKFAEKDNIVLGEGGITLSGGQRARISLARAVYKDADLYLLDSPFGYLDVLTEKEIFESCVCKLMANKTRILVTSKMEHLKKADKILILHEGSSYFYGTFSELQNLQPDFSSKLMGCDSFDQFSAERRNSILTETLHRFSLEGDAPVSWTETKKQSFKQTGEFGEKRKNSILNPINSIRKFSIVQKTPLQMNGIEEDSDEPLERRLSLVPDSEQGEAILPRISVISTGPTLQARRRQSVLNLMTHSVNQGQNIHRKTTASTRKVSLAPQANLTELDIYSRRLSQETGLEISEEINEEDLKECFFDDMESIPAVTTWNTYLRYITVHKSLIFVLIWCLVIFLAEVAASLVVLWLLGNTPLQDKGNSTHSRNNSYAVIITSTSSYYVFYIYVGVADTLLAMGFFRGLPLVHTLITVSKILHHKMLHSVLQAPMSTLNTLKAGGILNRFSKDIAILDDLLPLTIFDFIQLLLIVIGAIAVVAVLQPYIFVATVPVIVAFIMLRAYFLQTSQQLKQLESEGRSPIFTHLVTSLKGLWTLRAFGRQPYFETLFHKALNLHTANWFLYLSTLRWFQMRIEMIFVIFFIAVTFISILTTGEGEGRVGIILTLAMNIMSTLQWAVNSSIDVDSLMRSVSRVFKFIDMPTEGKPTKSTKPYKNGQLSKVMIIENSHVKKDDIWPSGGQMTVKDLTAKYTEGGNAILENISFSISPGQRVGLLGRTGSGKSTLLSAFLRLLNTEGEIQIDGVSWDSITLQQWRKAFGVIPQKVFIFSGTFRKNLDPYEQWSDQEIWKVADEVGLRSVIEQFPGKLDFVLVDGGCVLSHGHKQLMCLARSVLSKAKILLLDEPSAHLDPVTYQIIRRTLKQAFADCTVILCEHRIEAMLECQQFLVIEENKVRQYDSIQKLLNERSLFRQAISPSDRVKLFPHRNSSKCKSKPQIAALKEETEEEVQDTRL

Molecule	EC50 [nM]	Maximum % activity [%]
C[C@@]1(C(=O)N[C@@H]2C[C@H](c3cccc(C(=O)O)c3)Oc3ccccc32)Cc2cc(Cl)ccc2O1 [Example 27, 3-[(2R,4R)-4-{[(2S)-5-chloro-2-methyl-2,3-dihydro-1-benzofuran-2-carbonyl]amino}-3,4-dihydro-2H-1-benzopyran-2-yl]benzoic acid]	> 20000	7.9
COc1ccc2c(c1)O[C@@H](c1cccc(C(=O)O)c1)C[C@H]2NC(=O)C1(c2ccc(Cl)cc2)CC1 [Example 42, 3-[(2R,4R)-4-{[1-(4-chlorophenyl)cyclopropane-1-carbonyl]amino}-7-methoxy-3,4-dihydro-2H-1-benzopyran-2-yl]benzoic acid]	280	28.3
COc1ccc2c(c1)O[C@@H](c1ccc(C(=O)O)cc1)C[C@H]2NC(=O)C1(c2ccc(F)cc2)CCCC1 [Example 93, 4-[(2R,4R)-4-{[1-(4-fluorophenyl)cyclopentane-1-carbonyl]amino}-7-methoxy-3,4-dihydro-2H-1-benzopyran-2-yl]benzoic acid]	> 20000	5.7
COC(=O)c1ccc([C@H]2C[C@@H](NC(=O)[C@]3(C)CCc4cc(Cl)ccc4O3)c3ccccc3O2)cc1 [Example 61, methyl 4-[(2R,4R)-4-{[(2S)-6-chloro-2-methyl-3,4-dihydro-2H-1-benzopyran-2-carbonyl]amino}-3,4-dihydro-2H-1-benzopyran-2-yl]benzoate]	5880	20.0
COC(=O)[C@H]1CC[C@@H]([C@H]2C[C@@H](NC(=O)C3(c4ccc5c(c4)OC(F)(F)O5)CC3)c3ccc(OC(F)F)cc3O2)CC1 (single isomer, unassigned) [Example 14D]	630	121.5
COc1ccc2c(c1)O[C@@H](c1ccc(C(=O)O)cc1)C[C@H]2NC(=O)C1(c2ccccc2)CC1(F)F (mixture of isomers) [Example 105, 4-{(2R,4R)-4-[(2,2-difluoro-1-phenylcyclopropane-1-carbonyl)amino]-7-methoxy-3,4-dihydro-2H-1-benzopyran-2-yl}benzoic acid]	1100	32.0
COC(=O)c1cccc([C@H]2C[C@@H](NC(=O)[C@@]3(C)CCc4cc(OC)ccc43)c3ccc(OC)cc3O2)c1 [Example 31, methyl 3-[(2R,4R)-7-methoxy-4-{[(1S)-5-methoxy-1-methyl-2,3-dihydro-1H-indene-1-carbonyl]amino}-3,4-dihydro-2H-1-benzopyran-2-yl]benzoate]	400	63.6
COC(=O)c1cccc([C@H]2C[C@@H](NC(=O)[C@@]3(C)CCc4cc(OC)ccc43)c3ccccc3O2)c1 [Example 30, methyl 3-[(2R,4R)-4-{[(1S)-5-methoxy-1-methyl-2,3-dihydro-1H-indene-1-carbonyl]amino}-3,4-dihydro-2H-1-benzopyran-2-yl]benzoate]	960	48.4
COc1ccc2c(c1)CC[C@]2(C)C(=O)N[C@@H]1C[C@H](c2cccc(C(=O)O)c2)Oc2ccccc21 [Example 34, 3-[(2R,4R)-4-{[(1S)-5-methoxy-1-methyl-2,3-dihydro-1H-indene-1-carbonyl]amino}-3,4-dihydro-2H-1-benzopyran-2-yl]benzoic acid]	410	52.6
COc1ccc2c(c1)O[C@@H](c1ccc(C(=O)O)cc1)C[C@H]2NC(=O)C1(c2ccc(OC(F)(F)F)cc2)CC1 [Example 3, 4-[(2R,4R)-7-methoxy-4-({1-[4-(trifluoromethoxy)phenyl]cyclopropane-1-carbonyl}amino)-3,4-dihydro-2H-1-benzopyran-2-yl]benzoic acid]	1940	106.0
COc1ccc2c(c1)O[C@@H](c1cccc(C(=O)O)c1)C[C@H]2NC(=O)C(C)(C)c1ccc2c(c1)OCCO2 [Example 39, 3-{(2R,4R)-4-[2-(2,3-dihydro-1,4-benzodioxin-6-yl)-2-methylpropanamido]-7-methoxy-3,4-dihydro-2H-1-benzopyran-2-yl}benzoic acid]	870	41.7
COc1ccc(C2(C(=O)N[C@@H]3C[C@H](c4cccc(C(=O)O)c4)Oc4cc(OC)ccc43)CC2)cc1 [Example 44, 3-[(2R,4R)-7-methoxy-4-{[1-(4-methoxyphenyl)cyclopropane-1-carbonyl]amino}-3,4-dihydro-2H-1-benzopyran-2-yl]benzoic acid]	100	35.3
COc1ccc2c(c1)O[C@@H](c1ccc(C(=O)O)cc1)C[C@H]2NC(=O)C1(c2ccc(Cl)c(Cl)c2)CC1 [Example 2, 4-[(2R,4R)-4-{[1-(3,4-dichlorophenyl)cyclopropane-1-carbonyl]amino}-7-methoxy-3,4-dihydro-2H-1-benzopyran-2-yl]benzoic acid]	150	95.0
COc1ccc2c(c1)OC(c1ccc(OC)c(OC)c1)CC2NC(=O)C1(c2ccc(F)c(F)c2)CCC1 (stereo not drawn) [Example 17, 1-(3,4-difluorophenyl)-N-[2-(3,4-dimethoxyphenyl)-7-methoxy-3,4-dihydro-2H-1-benzopyran-4-yl]cyclobutane-1-carboxamide]	3320	27.6
COc1ccc2c(c1)O[C@@H](c1ccc(C(=O)O)cc1)C[C@H]2NC(=O)C(C)(C)c1ccc(F)cc1 [Example 111, 4-{(2R,4R)-4-[2-(4-fluorophenyl)-2-methylpropanamido]-7-methoxy-3,4-dihydro-2H-1-benzopyran-2-yl}benzoic acid]	840	47.7
COc1ccc2c(c1)[C@](C)(C(=O)N[C@@H]1C[C@H](c3cccc(C(=O)O)c3)Oc3ccccc31)CC2 [Example 48, 3-[(2R,4R)-4-{[(1R)-6-methoxy-1-methyl-2,3-dihydro-1H-indene-1-carbonyl]amino}-3,4-dihydro-2H-1-benzopyran-2-yl]benzoic acid]	> 20000	4.5
COc1ccc(C(C)(C)C(=O)N[C@@H]2C[C@H](c3cccc(C(=O)O)c3)Oc3cc(OC)ccc32)cc1 [Example 25, 3-{(2R,4R)-7-methoxy-4-[2-(4-methoxyphenyl)-2-methylpropanamido]-3,4-dihydro-2H-1-benzopyran-2-yl}benzoic acid]	230	39.5
Cc1ccccc1C(C)(C)C(=O)N[C@@H]1C[C@H](c2cccc(C(=O)O)c2)Oc2ccccc21 [Example 49, 3-{(2R,4R)-4-[2-methyl-2-(2-methylphenyl)propanamido]-3,4-dihydro-2H-1-benzopyran-2-yl}benzoic acid]	> 20000	3.5
COC(=O)c1cccc([C@H]2C[C@@H](NC(=O)[C@]3(C)CCc4cc(OC)ccc43)c3ccc(OC)cc3O2)c1 [Example 29, methyl 3-[(2R,4R)-7-methoxy-4-{[(1R)-5-methoxy-1-methyl-2,3-dihydro-1H-indene-1-carbonyl]amino}-3,4-dihydro-2H-1-benzopyran-2-yl]benzoate]	1440	37.8
3-{(2R,4R)-4-[2-(2H-1,3-benzodioxol-5-yl)-2-methylpropanamido]-7-methoxy-3,4-dihydro-2H-1-benzopyran-2-yl}benzoic acid [Example 38]	160	34.4
3-[(2R,4R)-4-{[(2R)-6-chloro-2-methyl-3,4-dihydro-2H-1-benzopyran-2-carbonyl]amino}-7-methoxy-3,4-dihydro-2H-1-benzopyran-2-yl]benzoic acid [Example 65]	2140	27.0

Source: patent publication US10118916B2, “Modulators of cystic fibrosis transmembrane conductance regulator protein” (AbbVie S.à.r.l., priority 2016, dated 2018)
